Series [1] can be described thus: Binding affinity to HIV1 capsid protein p24 by SPR assay. Also on record: species or system Human immunodeficiency virus 1.
Series [2] relates to Human immunodeficiency virus 1. Nature of the series: Binding affinity to HIV1 capsid protein p24 assessed as turbidity at 100 uM by spectrophotometer analysis.
Series [3] relates to Human immunodeficiency virus 1. The experiment in a line: Antiviral activity against HIV1 NL4-3 pseudotyped with JR-FL envelope infected in human U87.CD4.CCR5 cells by single-round infection assay. To be noted: Human immunodeficiency virus 1, NL4-3, U87/CD4/CCR5. Format: functional, organism-based.
Series [4] is described as follows: Cytotoxicity against human U87 cells expressing CD4.CCR5. Format: cell-based, U-87MG ATCC.
Series [5] is described as follows: Therapeutic index, ratio of CC50 for human U87 cells expressing CD4.CCR5 to IC50 for HIV1 NL4-3 pseudotyped with JR-FL envelope. Type of series: cell-based, U-87MG ATCC. To be noted: read-out: Ratio CC50/IC50.
Series [6] has as its system Human immunodeficiency virus 1. Nature of the series: Inhibition of HIV1 capsid protein p24 interaction with CPSF6 (308-327) at 2.5 uM.
In series [7] the test system is Human immunodeficiency virus 1. Nature of the series: Inhibition of HIV1 capsid protein p24 interaction with CPSF6 (308-327) at 300 uM.

Molecules are shown by their SMILES. Calls of active or inactive are those of the source. No cut-off for these calls is given here.

In general, Kd refers to the equilibrium constant for the complex coming apart. Low values mean tighter binding, high ones weaker binding. What is called IC50 is the concentration needed to halve the response being measured. Lower therefore signals inhibition by little substance. By CC50 is commonly meant the concentration that lowers cell viability or growth by half. A lower CC50 goes with harm at low concentration.

Regarding `O=C(Cc1c[nH]c2ccccc12)NCC1(c2ccccc2)CC1`, the Kd in series [1] stood at 38.2 µM. Also, the outcome in series [2] was Active. Also, the IC50 in series [3] is 18.1 µM. Half-maximal cytotoxicity in series [4] (CC50) was put at 526 µM. Moreover, the selectivity ratio in series [5] was above 29. Besides, the inhibition result in series [6] was “Active”.
In series [1], `Cc1[nH]c2ccccc2c1CC(=O)N[C@@H](Cc1ccccc1)C(=O)N(C)c1ccccc1` gave a Kd of 2.53 µM. For the same molecule, in series [2], the outcome was Active. Further, the inhibition result in series [7] was “Active”.

Source of the values: ChEMBL document CHEMBL3745691, “Identification of a small molecule HIV-1 inhibitor that targets the capsid hexamer” (Bioorg Med Chem Lett, 2016).
